In US20150329505A1, “A FLUORESCENT COMPOSITION FOR USE IN MARKING OBJECTS, SUCH AS FLOWERS” (BIOCONST PTY LTD, priority 2012, published 2015):
Structures can show the parent of a compound that is named as a salt. Where two headings read alike, the source gives them in different places.

What was measured:
[1] = Fluorescence emitted by sprayed flowers when excited by UV light; conditions: 0.1% pyranine, 0.5% sugar, 0.1% sodium bicarbonate, pH 7.72, dried overnight, then 1 mM, 1.5 mM and 2 mM HCl
[2] = Effect of time of UV exposure on fluorescence; format: physicochemical; conditions: 0.1% (w/v) sprayed on flowers, 6 hours, UV torch 50,000 μW/cm2
Protocol: The effect of long term exposure of UV light was tested on flowers sprayed with fluorophore
Flowers were sprayed with 0.1% (w/v) pyranine solution. The flowers were allowed to dry overnight. A UV torch Optimax™ 365, having an intensity of 50,000 μW/cm2 was shone on the sprayed flowers.

flowers [3] = assay: Effect of sprayed solutions on wilting and vase life of flowers
Protocol: (§2) The above solutions were prepared by adding the fluorophore to tap water, in order to test the properties of the fluorophores in a non-sterilised, non-purified aqueous solution. The solutions were placed into a spray device for application to the surface of the relevant plants.
(§3) Solutions were sprayed onto chrysanthemums and roses and allowed to dry overnight at room temperature.

chrysanthemum flower = assay: Uptake of fluorophore by cut flowers; format: in vivo; conditions: cut stems in 0.1% (w/v) pyranine, 0.5% (w/v) sucrose overnight
Protocol: (§1) Freshly cut stems of flowers (roses and chrysanthemums) were prepared and the ends of the stems placed in a solution of 0.1% (w/v) pyranine, 0.5% (w/v) sucrose. The cut end of the flowers was left in the solution overnight and uptake of the fluorophore viewed under UVA light.

rose flower = assay: Uptake of fluorophore by cut flowers; format: in vivo; conditions: cut stems in 0.1% (w/v) pyranine, 0.5% (w/v) sucrose overnight
Protocol: as §1

flowers [4] = conditions: in vivo
Protocol: as §2, §3

[5] = Autoclaving of fluorophore solutions; format: physicochemical; conditions: 0.5% (w/v) of the sugar, 0.1% pyranine, 0.1% sodium bicarbonate, autoclaved at 121° C.
Protocol: Fluorophore solution containing sugar caused the increase in growth of bacteria and fungus.
Fluorophore solution was prepared containing 0.1% (w/v) pyranine, 0.5% (w/v) sucrose, 0.1% (w/v) sodium bicarbonate. A similar solution was prepared with the same concentration of fructose. A small quantity of both the solutions prepared was kept aside for future use. Both the solutions were autoclaved at 121° C. in an Atherton Squirrel autoclave. This was then allowed to cool to room temperature and sprayed on flowers. Solutions which were kept aside previously (and which were not auto-claved) were also sprayed onto flowers. A negative control with no spray was also used to monitor vase life.

Cl [HCl]
change of fluorescence colour after acidic spray [1]: no change in colour to fluorescent blue

O=S(=O)([O-])c1cc(O)c2ccc3c(S(=O)(=O)[O-])cc(S(=O)(=O)[O-])c4ccc1c2c34.[Na+].[Na+].[Na+] [pyranine, 8-Hydroxypyrene-1,3,6-trisulfonic acid trisodium salt]
change of fluorescence on continuous UV exposure [2]: no visible change in the colour of fluorescence
vase life of flower (flowers [3]; 0.05% (w/v) in tap water, sprayed onto chrysanthemums and roses): did not affect the vase life of flower
vase life (flowers [3]; 0.05% to 0.5% (w/v) in tap water): did not affect vase life
uptake of the fluorophore viewed under UVA light (chrysanthemum flower): The veins in the petals of the flower demonstrate fluorescence
uptake of the fluorophore viewed under UVA light (rose flower): The veins in the petals of the flower demonstrate fluorescence

O=C1OC2(c3ccc(O)cc3Oc3cc(O)ccc32)c2ccccc21 [Fluorescein, reference compound]
wilting of flowers and vase life (flowers [4]): caused wilting of flowers and reduced vase life

COC(=O)c1ccc(O)cc1 [methylparaben]
wilting and vase life (flowers [4]): caused wilting of the flowers and reduced the vase-life of the flower

O=C(CO)[C@@H](O)[C@H](O)[C@H](O)CO [fructose]
appearance of the solution after autoclaving [5]: dark brown

O=C([O-])O.[Na+] [sodium bicarbonate]
vase life (flowers [4]): did not affect the vase-life of the flower

O=C([O-])c1ccccc1-c1c2cc(Br)c(=O)c(Br)c-2oc2c(Br)c([O-])c(Br)cc12.[Na+].[Na+] [Eosin Y, reference compound]
wilting of flowers and vase life (flowers [3]; 0.5% (w/v) in tap water, sprayed onto chrysanthemums and roses, dried overnight): caused wilting of flowers and reduced vase life

OC[C@H]1O[C@@](CO)(O[C@H]2O[C@H](CO)[C@@H](O)[C@H](O)[C@H]2O)[C@@H](O)[C@@H]1O [sucrose]
appearance of the solution after autoclaving [5]: fluorescent green
